Literature values in EP4763224A1, “ANTICANCER AGENT CONTAINING NKT CELL LIGAND-CONTAINING LIPOSOME COMPOSITION” (RIKEN, priority 2023, dated 2025).

Test system: NKT cells
Details: for activity relative to α-galactosylceramide: Patent Documents 1 to 5 and Non-Patent Document 10

Structure (SMILES) | activity relative to α-galactosylceramide | artificial activation of NKT cells (Non-Patent Document 9)
CCCCCCCCCCCCCCCCCCCCCCCCCC(=O)N[C@@H](CO[C@H]1O[C@H](COC)[C@H](O)[C@H](O)[C@H]1O)[C@H](O)[C@H](O)CCCCCCCCCCCCCC [RCAI-61] | several tens times higher | –
CCCCCCCCCCCCCCCCCCCCCCCCCC(=O)N[C@@H](CO[C@H]1O[C@H](COC(=O)NO)[C@H](O)[C@H](O)[C@H]1O)[C@H](O)[C@H](O)CCCCCCCCCCCCCC [RCAI-137] | several tens times higher | –
CCCCCCCCCCCCCCCCCCCCCCCCCC(=O)N[C@@H](CO[C@H]1O[C@H](COC(=O)NC)[C@H](O)[C@H](O)[C@H]1O)[C@H](O)[C@H](O)CCCCCCCCCCCCCC [RK-163] | several tens times higher | –
CCCCCCCCCCCCCCCCCCCCCCCCCC(=O)N[C@@H](CO[C@H]1O[C@H](CO)[C@H](O)[C@H](O)[C@H]1O)[C@H](O)[C@H](O)CCCCCCCCCCCCCC [α-Galactosylceramide, reference compound] | – | strongly induce artificial activation of NKT cells
